Experimental data: patent publication US9962369B2, “Methods and compositions for transdermal delivery” (SPRAYABLE HOLDINGS, INC., priority 2014, dated 2018)

Tested on: human skin tissue
Assay: Penetration rate of AI compound in AI-helper composition through human skin in vitro, modified Franz cells
Assay type: in vitro ADME
Details: for Skin penetration rate of Al compound: Al compound 0.5% w/v; for Skin penetration rate of Al compound / Skin penetration rate of AI compound: 25 °C; for Skin penetration rate of lipoic acid: alpha-lipoic acid 0.5% w/v, Tyrosine isopropyl ester•HA 6% w/v, 20° C.
Description: Penetration rate of AI compound in the AI-helper composition through human skin were measured in vitro by modified Franz cells. A Franz cell had two chambers: the top sample chamber and the bottom receiving chamber. The human skin tissue (450-500 μm thick) that separated the top and the receiving chambers was isolated from the anterior or posterior thigh areas.

[1] = 2-(Diethylamino)ethyl 2-(4-isobutylphenyl)propionate hydrochloride 6% w/v, water
[2] = D-Phenylalanine isopropyl ester hydrochloride 6% w/v, water
[3] = Dialkylaminoalkyl 2-(4-isobutylphenyl)propionate: None
[4] = L-Phenylalanine isopropyl ester hydrochloride 6% w/v, water
[5] = no isoleucine ester (None), AI compound 0.5 % w/v in water
[6] = no leucine ester (None), AI compound 0.5 % w/v in water
[7] = no tryptophan ester (None), AI compound 0.5 % w/v in water
[8] = with D-isoleucine isopropyl ester hydrochloride 6 % w/v in water, AI compound 0.5 % w/v
[9] = with D-leucine isopropyl ester hydrochloride 6 % w/v in water, AI compound 0.5 % w/v
[10] = with D-tryptophan isopropyl ester hydrochloride 6 % w/v in water, AI compound 0.5 % w/v
[11] = with L-isoleucine isopropyl ester hydrochloride 6 % w/v in water, AI compound 0.5 % w/v
[12] = with L-leucine isopropyl ester hydrochloride 6 % w/v in water, AI compound 0.5 % w/v
[13] = with L-tryptophan isopropyl ester hydrochloride 6 % w/v in water, AI compound 0.5 % w/v

Skin penetration rate of Al compound [1]	Skin penetration rate of Al compound [2]	Skin penetration rate of Al compound [3]	Skin penetration rate of Al compound [4]	Skin penetration rate of Al compound (Phenylalanine ester: None)	Skin penetration rate of AI compound [5]	Skin penetration rate of AI compound [6]	Skin penetration rate of AI compound [7]	Skin penetration rate of AI compound [8]	Skin penetration rate of AI compound [9]	Skin penetration rate of AI compound [10]	Skin penetration rate of AI compound [11]	Skin penetration rate of AI compound [12]	Skin penetration rate of AI compound [13]	Molecule	further results
18.347 ± 3.132 μg/cm^2/h	20.015 ± 3.025 μg/cm^2/h	0.021 ± 0.011 μg/cm^2/h	20.177 ± 3.241 μg/cm^2/h	0.026 ± 0.015 μg/cm^2/h	0.015 ± 0.008 μg/cm^2/h	0.015 ± 0.011 μg/cm^2/h	0.018 ± 0.012 μg/cm^2/h	16.515 ± 3.212 μg/cm^2/h	16.315 ± 3.172 μg/cm^2/h	21.715 ± 3.685 μg/cm^2/h	16.656 ± 3.021 μg/cm^2/h	16.357 ± 3.121 μg/cm^2/h	20.977 ± 3.741 μg/cm^2/h	Vitamin A	
8.127 ± 3.211 μg/cm^2/h	8.156 ± 2.875 μg/cm^2/h	0.016 ± 0.008 μg/cm^2/h	8.236 ± 3.057 μg/cm^2/h	0.012 ± 0.006 μg/cm^2/h	0.0011 ± 0.006 μg/cm^2/h	0.008 ± 0.009 μg/cm^2/h	0.007 ± 0.011 μg/cm^2/h	6.816 ± 2.372 μg/cm^2/h	6.756 ± 2.325 μg/cm^2/h	8.718 ± 3.125 μg/cm^2/h	6.873 ± 3.061 μg/cm^2/h	6.813 ± 3.111 μg/cm^2/h	8.897 ± 3.211 μg/cm^2/h	Vitamin B12	

Continued, molecule first:

Molecule	Skin penetration rate of Al compound [1]	Skin penetration rate of Al compound [2]	Skin penetration rate of Al compound [3]	Skin penetration rate of Al compound [4]	Skin penetration rate of Al compound (Phenylalanine ester: None)	Skin penetration rate of AI compound [5]	Skin penetration rate of AI compound [6]	Skin penetration rate of AI compound [7]	Skin penetration rate of AI compound [8]	Skin penetration rate of AI compound [9]	Skin penetration rate of AI compound [10]	Skin penetration rate of AI compound [11]	Skin penetration rate of AI compound [12]	Skin penetration rate of AI compound [13]	further results
O=C1O[C@H]([C@@H](O)CO)C(O)=C1O [Vitamin C]	10.112 ± 2.322 μg/cm^2/h	10.378 ± 2.155 μg/cm^2/h	0.016 ± 0.012 μg/cm^2/h	10.301 ± 2.022 μg/cm^2/h	0.017 ± 0.015 μg/cm^2/h	0.011 ± 0.008 μg/cm^2/h	0.008 ± 0.010 μg/cm^2/h	0.007 ± 0.013 μg/cm^2/h	8.526 ± 2.271 μg/cm^2/h	8.256 ± 2.078 μg/cm^2/h	11.136 ± 2.385 μg/cm^2/h	8.369 ± 2.102 μg/cm^2/h	8.378 ± 2.152 μg/cm^2/h	11.345 ± 2.612 μg/cm^2/h	
O=C(O)CCCCC1CCSS1 (stereo not drawn) [lipoic acid]															Skin penetration rate of lipoic acid (HA = 1/2H2SO4, water): 34.012 ± 2.685 μg/cm^2/h; Skin penetration rate of lipoic acid (HA = 1/3H3PO4, water): 33.25 ± 2.762 μg/cm^2/h; Skin penetration rate of lipoic acid (HA = 2/3H3PO4, water): 34.124 ± 2.912 μg/cm^2/h; Skin penetration rate of lipoic acid (HA = Acetic acid, water): 33.513 ± 2.319 μg/cm^2/h; Skin penetration rate of lipoic acid (HA = Benzoic acid, water): 32.913 ± 4.319 μg/cm^2/h; Skin penetration rate of lipoic acid (HA = Butyric acid, water): 33.452 ± 3.756 μg/cm^2/h; Skin penetration rate of lipoic acid (HA = Citric acid, water): 34.013 ± 2.569 μg/cm^2/h; Skin penetration rate of lipoic acid (HA = H2SO4, water): 33.567 ± 3.125 μg/cm^2/h; Skin penetration rate of lipoic acid (HA = HBr, water): 34.013 ± 3.219 μg/cm^2/h; Skin penetration rate of lipoic acid (HA = HCl, water): 33.613 ± 2.819 μg/cm^2/h; Skin penetration rate of lipoic acid (HA = HF, water): 33.613 ± 3.219 μg/cm^2/h; Skin penetration rate of lipoic acid (HA = HI, water): 33.572 ± 3.129 μg/cm^2/h; Skin penetration rate of lipoic acid (HA = Lactic acid, water): 32.987 ± 4.212 μg/cm^2/h
Vitamin E	19.783 ± 4.025 μg/cm^2/h	21.363 ± 2.015 μg/cm^2/h	0.012 ± 0.006 μg/cm^2/h	21.357 ± 3.120 μg/cm^2/h	0.016 ± 0.011 μg/cm^2/h	0.016 ± 0.009 μg/cm^2/h	0.012 ± 0.007 μg/cm^2/h	0.008 ± 0.008 μg/cm^2/h	19.321 ± 3.012 μg/cm^2/h	19.723 ± 3.046 μg/cm^2/h	22.783 ± 3.145 μg/cm^2/h	19.412 ± 3.076 μg/cm^2/h	19.611 ± 3.126 μg/cm^2/h	23.657 ± 4.120 μg/cm^2/h	
